The data set in a line: solvent given as SMILES.

“And” between values parts separate entries of the source, which are not always exact repeats. Identical values can stand only once.

As for `CCN1\C(=C/C=C/C=C/C2=[N+](CC)c3ccc4cc(Br)ccc4c3C2(C)C)C(C)(C)c2c1ccc1cc(Br)ccc21`, the fluorescence lifetime by setting is: (in C1CCOC1) 1.37 ns; (in CC#N) 1.01 ns; (in CC(C)=O) 1.12 ns; (in CCO) 1.03 ns; (in CN(C)C=O) 1.39 ns; (in CO) 0.84 ns. Also, the fluorescence lifetime runs as follows: (in CS(C)=O) 1.5 ns; (in ClCCl) 1.46 ns.
Turning to `CCCCN1C(=O)c2cc(Oc3ccc(C(C)(C)C)cc3)c3c4c(Oc5ccc(C(C)(C)C)cc5)cc5c(=O)n6c(c7cc(Oc8ccc(C(C)(C)C)cc8)c(c8c(Oc9ccc(C(C)(C)C)cc9)cc(c2c38)C1=O)c4c57)=Cc1cccc[n+]1[B-]6(F)F`, the fluorescence lifetime is, setting by setting: (in C1CCOC1) 3.79 ns; (in Cc1ccccc1) 4.1 ns; (in ClCCl) 4.51 ns.
For the compound `CCC12C(=C3C(=C4c5ccccc5S(=O)(=O)C41CC)C(F)(F)C(F)(F)C3(F)F)c1ccccc1S2(=O)=O` (stereo not given), the fluorescence lifetime (in C1COCCO1) amounted to 1.2 ns.
`Cc1nnc(-c2cc(-n3c4ccccc4c4ccccc43)c(-n3c4ccccc4c4ccccc43)cc2-c2nnc(C)o2)o1`: the fluorescence lifetime (in Cc1ccccc1) is 14.5 ns.
In turn, `N#Cc1c(-n2c3ccccc3c3ccccc32)c(C#N)c(-n2c3ccccc3c3ccccc32)c(-n2c3ccccc3c3ccccc32)c1-n1c2ccccc2c2ccccc21` had a fluorescence lifetime (in Cc1ccccc1) of 17.8 ns.
With `C[Si]1(C)c2ccc(-c3cccs3)cc2C=Cc2cc(-c3cccs3)ccc21`, for the setting “in ClCCl”, the fluorescence lifetime stood at 2 ns.
On to `CN(C)c1ccc(-c2nc3c(c4c2-c2ccc(C#N)cc2CC4)-c2ccc(C#N)cc2CC3)cc1`, for which the fluorescence lifetime is, setting by setting: (in C1CCOC1) 2.93 ns; (in CC#N) 3.56 ns; (in CCCCCC) 0.6 ns; (in CCOC(C)=O) 2.55 ns; (in CO) 1.13 ns; (in CS(C)=O) 1.79 ns. Further, the fluorescence lifetime reads like this: (in Cc1ccccc1) 1.4 ns; (in ClCCl) 1.68 ns.
The compound `CCN(CC)c1ccc2cc(/C=C/c3ccccc3)c(=O)oc2c1` had a fluorescence lifetime (in CC#N) of 2.25 ns.
For the setting “in ClCCl”, `Cn1c(=O)cc(C(=O)c2ccccc2)c2sc(-c3ccc(OC(F)(F)F)cc3)cc21` had a fluorescence lifetime of 4.77 ns.
As to `CCC1(CC)c2ccccc2-c2c1c1c(c3c2C(CC)(CC)c2cc(B(c4c(C)cc(C)cc4C)c4c(C)cc(C)cc4C)ccc2-3)C(CC)(CC)c2ccccc2-1`, the fluorescence lifetime (in C1CCOC1) stood at 3.2 ns.
In turn, `NCc1ccc2ccc3cccc4ccc1c2c34` gave a fluorescence lifetime (in CC#N) of 232 ns, a fluorescence lifetime (in CO) of 119 ns and a fluorescence lifetime (in ClC(Cl)Cl) of 38 ns.
`c1ccc(-c2cc3cccc[n+]3[b-]3c(-c4cccc5[b-]4[n+]4ccccc4cc5-c4ccccc4)cccc32)cc1` came in with a fluorescence lifetime (in C1CCCCC1) of 4.5 ns.
Take `C(=C\c1cc(-c2ccc3ccccc3c2)c(/C=C/c2ccc(N(c3ccccc3)c3ccccc3)cc2)cc1-c1ccc2ccccc2c1)/c1ccc(N(c2ccccc2)c2ccccc2)cc1`: the fluorescence lifetime (in ClCCl) amounted to 1.17 ns.
With `CC1(C)C(/C=C/C2=C(Cl)C(=C/C=C3/N(CCCS(=O)(=O)[O-])c4ccccc4C3(C)C)/CCC2)=[N+](CCCS(=O)(=O)[O-])c2ccccc21`, where the note is “in CO”, the fluorescence lifetime was determined as 0.529 ns.
`O=c1c2cc(Cl)ccc2[nH]c2ccc(COO)cc12` came in with a fluorescence lifetime (in O) of 16.8 ns.
Regarding `Cc1cc(C)c(C2=C3C=CC=[N+]3[B-]3(c4ccc5ccc6cccc7ccc4c5c67)Oc4cc(O)cc5c6ccc(C)cc6c6cc2n3c6c45)c(C)c1` (stereo not given), the fluorescence lifetime (in ClC(Cl)Cl) stood at 3.5 ns.
As for `Cc1ccc(-c2cc(-c3ccccc3)c(C#N)c(=S)[nH]2)cc1`, the fluorescence lifetime (in CC#N) amounted to 4.92 ns, the fluorescence lifetime (in CCO) is 4.79 ns and the fluorescence lifetime (in ClC(Cl)(Cl)Cl) stood at 1.22 ns.
Regarding `CC(C)(C)c1ccc2c(c1)[nH]c1c3[nH]c4cc(C(C)(C)C)ccc4c3c3nsnc3c21`, the fluorescence lifetime by setting is: (in CN(C)C=O) 2.29 ns; (in Cc1ccccc1) 1.5 ns; (in ClCCl) 2.61 ns.
In the case of `COC(=O)C(Cc1ccc2oc(-c3ccc(Nc4ccccc4)cc3)nc2c1)NC(=O)OC(C)(C)C` (stereo not given), the fluorescence lifetime (in C1CCCCC1) turned out to be 1.23 ns; the fluorescence lifetime (in C1CCOC1) was determined as 2.68 ns; the fluorescence lifetime (in C1COCCO1) was determined as 1.83 ns; the fluorescence lifetime (in CC1CCCO1) is 2.75 ns; the fluorescence lifetime (in CC1COC(=O)O1) is 1.98 ns; the fluorescence lifetime (in CC#N) amounted to 2.26 ns. Also, the fluorescence lifetime (in CC(C)=O) came out at 2.96 ns; the fluorescence lifetime (in CC(C)CC(C)(C)C) came out at 1.01 ns; the fluorescence lifetime (in CC(C)CO) was determined as 2.23 ns; the fluorescence lifetime (in CC(C)O) stood at 2.43 ns; the fluorescence lifetime (in CC(C)OC(C)C) was found to be 2.48 ns; the fluorescence lifetime (in CC(O)CO) was determined as 0.54 ns. Also, the fluorescence lifetime is, setting by setting: (in CCC(C)CC) 1.03 ns; (in CCCCC) 1.14 ns; (in CCCCCC) 1.02 ns; (in CCCCCCCCC) 1.06 ns; (in CCCCCCCCCC) 1.09 ns; (in CCCCCCCO) 2.23 ns. Further, the fluorescence lifetime reads like this: (in CCCCCCO) 2.41 ns; (in CCCCCO) 2.89 ns; (in CCCCO) 2 ns; (in CCO) 0.8 ns; (in CCOC(C)=O) 2.46 ns; (in CCOCC) 2.27 ns. The fluorescence lifetime (in CN(C)C=O) is 2.45 ns; the fluorescence lifetime (in CO) stood at 0.43 ns; the fluorescence lifetime (in COCCOC) came to 0.9 ns; the fluorescence lifetime (in CS(C)=O) was 1.92 ns; the fluorescence lifetime (in Cc1ccccc1) turned out to be 1.36 ns; the fluorescence lifetime (in Cc1ccccc1C) was 1.35 ns. Further, the fluorescence lifetime reads like this: (in ClC(Cl)Cl) 2.26 ns; (in ClCCl) 3.1 ns; (in NC=O) 1.7 ns; (in OC1CCCCC1) 2.23 ns; (in OCCO) 2.95 ns; (in c1ccccc1) 1.42 ns.
On to `CCC1(CC)c2cc(-c3ccc4c(c3)C(CC)(CC)c3cc(C(C)(C)C)ccc3-4)ccc2-c2ccc(-c3ccc4c(c3)C(CC)(CC)c3cc(C(C)(C)C)ccc3-4)cc21`, for which the fluorescence lifetime (in CCCCC) was 0.72 ns; the fluorescence lifetime (in CCCCCC) worked out at 0.67 ns; the fluorescence lifetime (in CCCCCCC) amounted to 0.67 ns; the fluorescence lifetime (in CCCCCCCC) was 0.7 ns; the fluorescence lifetime (in CCCCCCCCC) was determined as 0.7 ns; the fluorescence lifetime (in CCCCCCCCCC) came to 0.71 ns. In addition, the fluorescence lifetime reads like this: (in CCCCCCCCCCCC) 0.74 ns; (in CCCCCCCCCCCCC) 0.76 ns; (in CCCCCCCCCCCCCCC) 0.75 ns; (in CCCCCCCCCCCCCCCC) 0.75 ns; (in CCCCCCCCCCO) 0.8 ns; (in CCCCCCCCCO) 0.74 ns. In addition, the fluorescence lifetime (in CCCCCCCCO) was determined as 0.75 ns; the fluorescence lifetime (in CCCCCCCO) worked out at 0.75 ns; the fluorescence lifetime (in CCCCCCO) was 0.76 ns; the fluorescence lifetime (in CCCCCO) worked out at 0.76 ns; the fluorescence lifetime (in CCCCO) amounted to 0.78 ns; the fluorescence lifetime (in CCCO) is 0.8 ns. For the same compound, the fluorescence lifetime worked out at 0.8 ns (in CCO) and 0.78 ns (in CO).
`CN(C)c1ccc(C(=Cc2ccc(/C=C/c3ccc(C#N)cc3)cc2)c2ccc(N(C)C)cc2)cc1` had a fluorescence lifetime (in C1CCOC1) of 1 ns.
Take `COc1cc2c(cc1/C=C/C(=C(C#N)C#N)c1ccccc1)c1ccccc1n2C`: the fluorescence lifetime reads like this: (in C1CCOC1) 7.35 ns; (in CC#N) 7.64 ns; (in CCO) 5.52 ns; (in CCOC(C)=O) 6.74 ns; (in CN(C)C=O) 7.2 ns; (in CS(C)=O) 9.07 ns. Moreover, the fluorescence lifetime by setting is: (in Cc1ccccc1) 7.98 ns; (in ClC(Cl)Cl) 8.11 ns; (in ClCCl) 6.44 ns.
The compound `O=S1(=O)c2ccccc2-c2cc(-c3c4ccccc4cc4ccccc34)ccc21` had a fluorescence lifetime (in C1CCCCC1) of 3.3 ns, a fluorescence lifetime (in CC#N) of 3.8 ns and a fluorescence lifetime (in ClCCl) of 3.4 ns.
`N#Cc1cc(N2c3ccccc3Sc3ccccc32)cc(N2c3ccccc3Sc3ccccc32)c1`: the fluorescence lifetime (in Cc1ccccc1) was determined as 22.6 ns.
Regarding `CCCCC(CC)COc1ccc2nc(-c3ccc(-c4ccc(OC)cc4)s3)sc2c1` (stereo not given), the fluorescence lifetime (in ClCCl) was 1.52 ns.
As for `CCN(CC)c1ccc2cc(C#N)/c(=N\C(=O)c3ccc(F)cc3)oc2c1`, the fluorescence lifetime is, setting by setting: (in CCO) 3 ns; (in ClCCl) 3.8 ns.
For the setting “in O”, `O=C(O)CCCCCn1c2ccccc2c(=O)c2cc(S(=O)(=O)O)ccc21` yielded a fluorescence lifetime of 13 ns.
For the compound `COc1ccc(C2=C(C)C3=C(c4c(-c5ccccn5)nc5ccccn45)c4c(C)c(-c5ccc(OC)cc5)c(C)n4[B-](F)(F)[N+]3=C2C)cc1`, the fluorescence lifetime (in ClCCl) turned out to be 3.5 ns.
With `COc1cc2c(cc1-c1ccc(C#N)cc1)Cc1c3c(c4c(c1-2)-c1cc(OC)c(-c2ccc(C#N)cc2)cc1C4)C(=O)N(CCC(C)C)C3=O`, the fluorescence lifetime (in C1CCOC1) was determined as 2.1 ns.
With `COc1ccc(-c2nc(-c3ccc(-c4nc(-c5ccc(OC)cc5)c(-c5ccc(OC)cc5)[nH]4)cc3)[nH]c2-c2ccc(OC)cc2)cc1`, the fluorescence lifetime (in CC#N) was 1.1 ns and 1.24 ns.
In turn, `COC(=O)c1cc2c(cc3ccc4cccc5ccc2c3c45)[nH]1` had a fluorescence lifetime (in C1CCOC1) of 2.29 ns.
On to `O=S(=O)(c1ccc(N2c3ccccc3Oc3ccccc32)cc1)c1ccc(N2c3ccccc3Oc3ccccc32)cc1`, for which the fluorescence lifetime was 19 ns (in C1COCCO1); 4.3 ns (in CC(C)=O); 15 ns (in Cc1ccccc1); 16 ns (in ClC(Cl)Cl); 14 ns (in c1cc(-n2c3ccccc3c3ccccc32)cc(-n2c3ccccc3c3ccccc32)c1).
With `CCCCCCN1C(=O)c2cccc3c(-c4ccc(Cl)s4)ccc(c23)C1=O`, the fluorescence lifetime (in ClC(Cl)Cl) is 0.0093 ns.
Turning to `[O-][n+]1c(-c2ccc(Br)cc2)cc(N2CCOCC2)nc1/C=C/c1ccccc1`, the fluorescence lifetime (in ClCCl) is 3.7 ns.

The record behind these values is the Deep4Chem optical property database.
